# Reference: US9567318B2, “Substituted pyrimidine compounds and uses thereof” (Memorial Sloan-Kettering Cancer Center, priority 2009, dated 2017)
# Experiments:
# [1] = test system: MDA-MB-468, SKBr3, LNCaP, MOLM-13, Kasumi-1, OCI-Ly7 and HuH7 cells; experiment: Growth inhibition in a panel of cancer cells; assay type: cell-based, human; details: growth over 72 h
# Description: Tested were MDA-MB-468 triple-negative breast cancer cells, SKBr3 HER2+breast cancer cells, LNCaP mAR+prostate cancer cells, MOLM-13 and Kasumi-1 acute myeloid leukemia cells, OCI-Ly7 diffuse large B-cell lymphoma cells and HuH7 hepatocellular carcinoma cells. […] In cancer cells, half growth inhibitory concentrations ([…]) recorded for YK5 were in high agreement with its potency to degrade Hsp90 onco-clients.
# Growth Inhibition Assay. Antiproliferative effects of inhibitors were evaluated using the dye Alamar blue. This reagent offers a rapid objective measure of cell viability in cell culture, and it uses the indicator dye resazurin to measure the metabolic capacity of cells, an indicator of cell viability. Briefly, cells were plated on Costar 96-well plates. For attached cells (such as SKBr3, MDA-MB-468, LNCaP, MRCS), 8,000 cells/well were used. For suspension cells (such as MOLM-13, Kasumi-1, OCI-Ly7, PBL), 20,000 cells/well were plated. Cells were allowed to incubate for 24 h at 37° C. before drug treatment. Drugs were added in triplicates at the indicated concentrations, and the plate was incubated for 72 h. Alamar Blue (440 μM) was added, and the plate read 6 h later using the Analyst GT (Fluorescence intensity mode, excitation 530 nm, emission 580 nm, with 560=dichroic mirror). Results were analyzed using the Softmax Pro software. The percentage cell growth inhibition was calculated by comparing fluorescence readings obtained from treated versus control cells, accounting for initial cell population (time zero).
# MDA-MB-468 cells = experiment: Propidium iodide staining and flow cytometry (cell cycle, hypodiploid population, TNFα); assay type: cell-based, human; details: YK5 1 μM, TNFα 20 ng/ml
# Description: (§1) FIG. 12. YK5 affects the major hallmarks of cancer: inhibits proliferation and invasiveness and arrests cancer cells in the cell cycle. (a) The indicated cancer cells were incubated with increasing concentrations of inhibitors and growth over 72 h was assessed. Y-axis values below 0% represent cell death of the starting population. Drugs were assayed in triplicate. (b) Mice (n=5) bearing MDA-MB-468 subcutaneously (s.c.) xenografted tumors that reached a volume of approximately 100-200 mm^3, were administered i.t. YK5 or vehicle as described in Methods. Tumor volume (mm^3) was estimated from caliper measurements. (c) Cells were treated for 24 h with indicated concentrations of YK5. DNA content was analyzed by propidium iodide staining and flow cytometry (left), whereas proteins by western blotting (right). (d) Hsp70 client proteins isolated by YK55-beads from SKBr3 and MDA-MB-468 extracts (500 μg) were analyzed by western blotting. Control beads contain D-biotin (100 μM) attached. (e) MDA-MB-231 breast cancer cells were treated for 24 h with YK5 (1 μM) and protein extracts were subjected to immunoblotting (upper) or pre-treated for 24 h with vehicle or YK5, and viable cells able to migrate through Matrigel over a 20 h period were quantified and data graphed (lower). […]
# FIG. 13. […] (a,b) Apoptotic cells were quantified by dual acridine orange/ethidium bromide staining as described in Methods. […]
# MDA-MB-231 cells = experiment: Cell invasion assay (Boyden chamber Matrigel); assay type: cell-based, human; details: 1 μM pre-treatment 24 h, 20 h migration
# Description: as §1, with “Control beads contain D-biotin (100 μM) attached.” left out
# Cell Invasion Assay. […] In summary, cells were stained with tryptan blue and counted manually with a hemacytometer. […] Cells in ten fields per membrane were counted at ×100 objective.
# [2] = test system: infiltrating ductal carcinoma tissue; experiment: Ex vivo treatment of fresh breast tumor tissue; design: species or system human; details: 5 μM, 24 h post addition
smiles,measurement,setting,value
"C=CC(=O)Nc1cc(N)nc(Sc2c(OC)nc(N3CCN(C)CC3)nc2OC)n1 [YK5, N-(6-amino-2-(4,6-dimethoxy-2-(4-methylpiperazin-1-yl)pyrimidin-5-ylthio)pyrimidin-4-yl)acrylamide]",growth of all tested cancer cells,[1],inhibited the growth of all tested cancer cells
same,apoptotic effect of TNFα,MDA-MB-468 cells,increased the apoptotic effect of TNFα
same,invasion through Matrigel,MDA-MB-231 cells,inhibited the ability of MDA-MB-231 cells to invade through Matrigel
same,tumor cells dead or dying,[2],60%
